{
  "source": "patent US7598072B2",
  "about": "(priority 2003, dated 2009)",
  "key": {"[1]": {"tested_on": "RCASBP(A)-EGFP (ASLV-A) in 293(TVA950) cells", "type": "cell-based, avian sarcoma and leukosis virus"}, "[2]": {"tested_on": "RCASBP(A)-EGFP (ASLV-A) in 293(TVA800) cells", "type": "cell-based, avian sarcoma and leukosis virus"}, "[3]": {"conditions": "15 mM MβCD, 15 minutes, no NH4Cl"}, "[4]": {"conditions": "30 mM NH4Cl for 10 hours, added at 20 minutes or later after initiating infection"}, "[5]": {"conditions": "30 mM NH4Cl for 10 hours, added at time of initiating infection or 10 minutes later"}, "[6]": {"conditions": "6 hour block with 30 mM NH4Cl, QPCR"}, "[7]": {"conditions": "6 hour block with 30 mM NH4Cl, flow cytometry"}},
  "data": [
    {"compound": "methyl-β-cyclodextrin [MβCD]", "values": [
      {"measurement": "effect of cyclodextrin treatment by itself on viral infectivity", "setting": "[1]; [3]", "result": "only a minor effect"},
      {"measurement": "loss of infectivity", "setting": "[2]; 15 mM MβCD 15 minutes combined with 6 hour 30 mM NH4Cl block at time of initiating infection", "result": 50, "unit": "%"},
      {"measurement": "effect of cyclodextrin treatment by itself on viral infectivity", "setting": "[2]; [3]", "result": "only a minor effect"}
    ]},
    {"compound": "Cl.N", "note": "[NH4Cl, ammonium chloride]", "values": [
      {"measurement": "effect upon viral infectivity (QPCR)", "setting": "[1]; [4]", "result": "greatly reduced effect"},
      {"measurement": "effect on infection (QPCR of reverse-transcribed DNA)", "setting": "[1]; [5]", "result": "complete block"},
      {"measurement": "viral infection during the period of inhibitor treatment", "setting": "[1]; 30 mM NH4Cl, 6 hours", "result": "completely arrested"},
      {"measurement": "decrease in viral infectivity", "setting": "[1]; 6 hour 30 mM NH4Cl, irrespective of whether cyclodextrin had been added", "result": "approximately 80%"},
      {"measurement": "number of viral DNA products after NH4Cl release, relative to untreated cells", "setting": "[1]; [6]", "result": 10, "unit": "%"},
      {"measurement": "efficiency of infection (EGFP-positive cells) relative to untreated cells", "setting": "[1]; [7]", "result": 20, "unit": "%"},
      {"measurement": "infectivity on increasing time of NH4Cl treatment to 12 hours", "setting": "[1]; 12 hours NH4Cl, data not shown", "result": "further decrease"},
      {"measurement": "effect upon viral infectivity (QPCR)", "setting": "[2]; [4]", "result": "greatly reduced effect"},
      {"measurement": "effect on infection (QPCR of reverse-transcribed DNA)", "setting": "[2]; [5]", "result": "complete block"},
      {"measurement": "viral infection during the period of inhibitor treatment", "setting": "[2]; 30 mM NH4Cl, 6 hours", "result": "completely arrested"},
      {"measurement": "level of infection (late viral DNA products) after NH4Cl release, relative to untreated cells", "setting": "[2]; [6]", "result": "approximately 60%"},
      {"measurement": "efficiency of infection (EGFP-positive cells) relative to untreated cells", "setting": "[2]; [7]", "result": 85, "unit": "%"},
      {"measurement": "infectivity on increasing time of NH4Cl treatment to 12 hours", "setting": "[2]; 12 hours NH4Cl, data not shown", "result": "did not affect"}
    ]}
  ]
}
